The text below walks through data of patent US6031135A, “Trimethylsphingosine derivatives” (Oncomembrane, Inc., priority 1996, dated 2000).

Series [1] deals with B16BL6 melanoma cells. Description: metastasis of B16BL6 melanoma cells (lung metastatic deposits in mice). The arrangement: key to Inhibition of metastasis: +: effective; -: not effective. The class given is in vivo, mouse. The method, then: BL6 cells were injected into mice and metastatic deposits in the lung were assessed after various treatments including route and timing, of administration.

Series [2] concerns platelets. The experiment in a line: platelet aggregation (aggregometer, thrombin or ADP). In kind it is cell-based. Also on record: key to Inhiition of PA: +: effective; -: not effective. The procedure:
Platelets were isolated from platelet-rich plasma (purchased from the Oregon Red Cross, Portland, Oreg.). Contaminating erythrocytes were removed by centrifugation (80×g for 10 minutes). Platelets were obtained by centrifugation (300×g for 10 minutes), washed once in Tyrode buffer (pH 6.5) containing 22 mM trisodium citrate and 0.35% (w/v) BSA and resuspended in the same buffer to obtain a concentration of 1-2×10^9 platelets/ml. All procedures were performed at room temperature.
A suspension of platelets (about 3.5×10^8 /ml) in Tyrode buffer was preincubated with inhibitor compounds (H-7 [1-(5-isoquinolinylsulfonyl)-2-methylpiperazine, a synthetic protein kinase-C inhibitor purchased from Seikagaku America Inc., St. Petersburg, Fla.], Calphostin-C [a synthetic protein kinase-C inhibitor obtained from Dr. Saitoh, Kyowa Hakko Co., Ltd., Machida, Tokyo, Japan], sphingosine [purchased from Sigma, St. Louis, Mo.] and dimethylsphingosine and trimethylsphingosine [synthesized according to Igarashi et al., Biochem., 28, 6796, 1989]) followed by addition of thrombin or ADP (both purchased from Sigma). Platelet aggregation was evaluated by transmittance change using an aggregometer (Chrono-log Corp., Havertown, Pa.) equipped with a computer analyzer.

Series [3] concerns PK-C. The experiment in a line: PK-C activity bioassay (histone III-S or myelin basic protein substrate). The arrangement: key: +: effective; -: not effective. The class given is biochemical, human (A431 cells) or mouse brain. The procedure: In another in vitro assay, the influence of various compounds on PK-C activity was monitored. Certain tumor cells present high levels of PK-C activity. The human epidermoid carcinoma cell line A-431 (ATCC No. CRL 1555) was used in a bioassay for PK-C activity as described in Igarashi et al. (supra). Briefly, phosphatidylserine (5 μg/tube) and 1,2-diolein (0.05 μg/tube), with or without an appropriate quantity of a sphingosine derivative sample, were added in an organic solvent, ethanol or ethanol/chloroform, to a 1.5 ml tube (Sarstedt) and the mixture was evaporated under a N2 stream. The lipid mixture was sonicated in about 30 μl of 20 mM Tris-HCl (pH 7.5) for 30 minutes.
The resulting liposomes were supplemented with a buffer mixture comprising 25 mM Tris-HCl (pH 7.5), 10 mM MgCl2, […], 50 μM EGTA, 500 μM CaCl2, […] histone III-S or myelin basic protein and 20 μM γ[^32 P]-ATP (2×10^6 cpm) to a final volume of about 90 μl. […]
The precipitate was collected by centrifugation, washed twice with 1 ml of 25% TCA, then dissolved in 1 ml of 1 M NaOH containing 0.1% deoxycholate with slight heating (80° C. for ten minutes) and counted in a scintillation counter. […]

Series [4] in a line: water solubility. In kind it is physicochemical. To be noted: particularly at physiologic pH.
Series [5] concerns HL60 cells. The experiment in a line: HL60 adhesion on activated platelet-coated solid phase. To be noted: thrombin-stimulated and PMA-stimulated platelets. The class given is cell-based, human. The procedure: HL60 (a human promylelocytic cell line available from the ATCC under accession number CCL 240) adhesion on resting or activated platelet-coatedsolid phase was evaluated as follows. Each well of a 48-well plate (Costar Scientific, Cambridge, Mass.) was filled with a poly-L-lysine solution (100 μg/ml in PBS) and incubated for 1 hour. Each well then was washed with PBS and then 150 μl of PBS containing 6×10^7 resting or activated platelets were added to each well and the plate was incubated for 1 hour. Plates were centrifuged (300×g for 7 minutes) and incubated a further 30 minutes at room temperature. Bound platelets were fixed by addition of 0.1% (w/v) glutaraldehyde in PBS for 2 minutes at 4° C. Each well was washed with 10 mM glycine in PBS and plates were incubated with 5% (w/v) BSA containing 0.1% (w/v) sodium azide, 10 mM glycine in PBS for 1 hour at room temperature.

The test system of series [6] is 47 kDa and 65 kDa proteins. The experiment in a line: PMA-stimulated protein phosphorylation in 32P-labeled neutrophils. The following applies: neutrophils pre-incubated with 15-45 μM, then 1.5 μM PMA. The class given is cell-based, human. The procedure: Excess unbound components were removed by centrifugation and the pellets were resuspended in the same buffer, repeating twice. The cells then were divided into 7 treatment groups, each containing ≈1×10^7 cells in a total volume of 0.4 ml. TMS, SPN or DMS was added to a suspension and incubated at 37° C. for 10 min, followed by addition of PMA to a final concentration of 1.5 μM. Two minutes later, the reaction was terminated by adding 0.1 ml of Laemmli sample buffer and 20 mM EDTA, followed by heating at 100° C. for 5 min. Aliquots were separated through 10% sodium dodecyl sulfate gels using known procedures. ^32 P incorporation was visualized by autoradiography.

The test system of series [7] is PK-C. To be noted: literature (Hannun & Bell; Merrill & Stevens); cited from earlier work.
The mark [8] stands for this setting: Preincubation with free derivative.

Molecules are shown by their SMILES.

As to `CCCCCCCCCCCCCC#CC(O)C(CO)[N+](C)(C)C` (stereo not shown) [4-alkyn-TMS], in series [1] (B16BL6 melanoma cells, no readable footnote on the cell), the Inhibition of metastasis result is on record as “+”.

Consider `C[N+](C)(C)[C@@H](CO)[C@H](O)/C=C/CCCCCCCCCCCCC(=O)O` [Carboxy TMS], for which the Inhibition of metastasis entry in series [1] (setting [8]) was “-”. Further, the “Inhiition of PA” value in series [2] is reported as “-”. Also, the PKC inhibition entry in series [3] is “-”.

Turning to `CCCCCCCCCCCCCCCC(O)C(CO)[N+](C)(C)C` (stereo not shown) [DHTMS], in series [1] (Experimental and spontaneous metastasis with liposomal formulation), the Inhibition of metastasis entry is on record as “+”.

Turning to `CCCCCCCCCCCCC/C=C/C(O)C(CO)N(C)C` (stereo not shown) [DMS, N,N-dimethylsphingosine], the water solubility entry in series [4] is reported as “less water soluble”. Moreover, the HL60 cell binding result in series [5] is “inhibited strongly”. Moreover, the “phosphorylation of 47 kDa and 65 kDa proteins” value in series [6] was “diminished significantly”.

As to `CCCCCCCCCCCCC/C=C/C(O)C(CO)NC` (stereo not shown) [MMS, N-monomethylsphingosine], the water solubility entry in series [4] is given as “less water soluble”.

Turning to `COC(=O)CCCCCCCCCCCC/C=C/[C@@H](O)[C@H](CO)[N+](C)(C)C` [Methylcarboxy TMS], the Inhibition of metastasis result in series [1] (setting [8]) is given as “-”. Moreover, in series [2], the “Inhiition of PA” value is listed as “-”. In addition, the PKC inhibition entry in series [3] was “-”.

In the case of `CCCCCCCCCCCCC/C=C/[C@@H](O)[C@@H](N)CO` [sphingosine, Sphingosine], in series [4], the water solubility result is on record as “less water soluble”. In addition, the HL60 cell binding result in series [5] is reported as “minimally inhibited”. For the same compound, the “phosphorylation of 47 kDa and 65 kDa proteins” value in series [6] is reported as “diminished significantly”. Also, the PK-C activity entry in series [7] is “inhibited”.
